ChEMBL document CHEMBL5038633 (J Med Chem, 2022)
Calls of active or inactive are those of the source. The rule behind the calls is not given here. *1 amine or outer side, *2 acyl side, *3 side chain or, on linkers, in order; H or OH if unused. Where a SMILES comes first, the peptide text is derived from it. Bridges are numbered along the chain shown (N, C = ends). [ ]: non-standard residue; d: D form. X1 = O=C(O)/C=C/[C@H](N[*:1])C(=O)[*:2]

Columns and labels:
[1] = molecular target: T1, Sodium channel protein type 9 subunit alpha (Homo sapiens, UniProt Q15858); experiment: Inhibition of human Nav1.7 stably expressed in cells with train pulses to -20 mV at 0.1 Hz and holding potential of -95 mV by Qube-automated patch clamp assay; assay type: cell-based
[2] = molecular target: Sodium channel protein type 4 subunit alpha (Homo sapiens, UniProt P35499); experiment: Inhibition of human Nav1.4 stably expressed in cells with train pulses to -20 mV at 0.1 Hz and holding potential of -95 mV by whole-cell Qube-automated patch clamp assay; assay type: cell-based
[3] = molecular target: Sodium channel protein type 8 subunit alpha (Homo sapiens, UniProt Q9UQD0); experiment: Inhibition of human Nav1.6 stably expressed in cells with train pulses to -20 mV at 0.1 Hz and holding potential of -85 mV by whole-cell Qube-automated patch clamp assay; assay type: cell-based
Chain of Sodium channel protein type 8 subunit alpha (Q9UQD0 whole entry): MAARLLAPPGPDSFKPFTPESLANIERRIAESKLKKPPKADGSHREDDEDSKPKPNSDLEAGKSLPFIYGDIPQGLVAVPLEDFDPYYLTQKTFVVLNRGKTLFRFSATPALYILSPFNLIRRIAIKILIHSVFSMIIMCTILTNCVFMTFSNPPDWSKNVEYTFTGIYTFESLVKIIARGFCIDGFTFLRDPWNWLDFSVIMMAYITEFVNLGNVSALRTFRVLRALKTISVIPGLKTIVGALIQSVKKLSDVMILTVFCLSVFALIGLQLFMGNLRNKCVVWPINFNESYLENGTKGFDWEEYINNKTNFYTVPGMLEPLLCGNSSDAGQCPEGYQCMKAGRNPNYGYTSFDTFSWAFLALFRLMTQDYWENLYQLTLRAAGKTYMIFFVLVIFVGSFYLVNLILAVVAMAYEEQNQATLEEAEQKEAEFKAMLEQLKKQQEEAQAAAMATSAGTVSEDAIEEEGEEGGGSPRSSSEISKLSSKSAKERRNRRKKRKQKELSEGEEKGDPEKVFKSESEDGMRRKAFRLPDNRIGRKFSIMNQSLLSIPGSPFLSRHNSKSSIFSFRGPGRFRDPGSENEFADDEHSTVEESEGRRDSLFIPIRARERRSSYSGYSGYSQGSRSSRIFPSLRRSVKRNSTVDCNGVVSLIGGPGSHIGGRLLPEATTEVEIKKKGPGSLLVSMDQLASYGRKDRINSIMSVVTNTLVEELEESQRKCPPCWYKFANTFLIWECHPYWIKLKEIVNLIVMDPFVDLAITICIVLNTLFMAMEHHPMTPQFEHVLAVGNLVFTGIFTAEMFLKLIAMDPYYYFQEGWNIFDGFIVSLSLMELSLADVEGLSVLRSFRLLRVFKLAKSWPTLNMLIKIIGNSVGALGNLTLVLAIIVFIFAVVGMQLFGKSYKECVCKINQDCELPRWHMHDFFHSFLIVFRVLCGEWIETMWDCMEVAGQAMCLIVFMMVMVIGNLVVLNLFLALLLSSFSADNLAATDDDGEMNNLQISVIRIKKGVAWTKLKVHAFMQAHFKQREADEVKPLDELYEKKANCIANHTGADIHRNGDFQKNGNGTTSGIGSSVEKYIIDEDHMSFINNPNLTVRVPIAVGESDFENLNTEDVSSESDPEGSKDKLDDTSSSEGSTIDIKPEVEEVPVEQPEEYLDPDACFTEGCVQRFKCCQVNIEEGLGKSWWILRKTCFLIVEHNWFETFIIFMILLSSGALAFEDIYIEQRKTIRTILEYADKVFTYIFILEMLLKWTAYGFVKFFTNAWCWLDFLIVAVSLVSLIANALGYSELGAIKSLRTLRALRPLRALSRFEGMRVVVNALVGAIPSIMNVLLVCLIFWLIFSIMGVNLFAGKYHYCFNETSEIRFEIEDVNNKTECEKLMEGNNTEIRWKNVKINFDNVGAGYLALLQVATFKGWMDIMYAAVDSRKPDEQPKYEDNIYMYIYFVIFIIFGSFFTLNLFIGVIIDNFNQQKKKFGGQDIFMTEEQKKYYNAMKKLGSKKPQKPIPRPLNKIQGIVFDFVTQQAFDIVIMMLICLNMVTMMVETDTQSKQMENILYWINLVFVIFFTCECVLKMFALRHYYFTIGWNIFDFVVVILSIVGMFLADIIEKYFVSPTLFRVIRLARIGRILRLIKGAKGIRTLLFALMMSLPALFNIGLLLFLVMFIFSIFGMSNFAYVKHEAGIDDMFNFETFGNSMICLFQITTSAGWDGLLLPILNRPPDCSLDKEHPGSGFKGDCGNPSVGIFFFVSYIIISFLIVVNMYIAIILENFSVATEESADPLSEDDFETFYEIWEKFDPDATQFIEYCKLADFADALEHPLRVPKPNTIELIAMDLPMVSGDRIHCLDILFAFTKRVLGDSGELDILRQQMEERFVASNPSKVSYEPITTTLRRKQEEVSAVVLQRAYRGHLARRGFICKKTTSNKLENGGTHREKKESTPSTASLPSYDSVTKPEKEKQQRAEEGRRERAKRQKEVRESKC

[4] = molecular target: T1, Sodium channel protein type 9 subunit alpha; experiment: Inhibition of human Nav1.7 stably expressed in cells with train pulses to -20 mV at 0.1 Hz and holding potential of -95 mV by whole-cell QPatch HT assay; assay type: cell-based
[5] = molecular target: Sodium channel protein type 9 subunit alpha (Rattus norvegicus, UniProt O08562); experiment: Inhibition of rat Nav1.7 stably expressed in cells with train pulses to -20 mV at 0.1 Hz and holding potential of -90 mV by whole-cell QPatch HT assay; assay type: cell-based
[6] = molecular target: Sodium channel protein type 2 subunit alpha (Homo sapiens, UniProt Q99250); experiment: Inhibition of human Nav1.2 stably expressed in cells with train pulses to -20 mV at 0.1 Hz and holding potential of -95 mV by Qube-automated patch clamp assay; assay type: cell-based
Chain of Sodium channel protein type 2 subunit alpha (Q99250 whole entry): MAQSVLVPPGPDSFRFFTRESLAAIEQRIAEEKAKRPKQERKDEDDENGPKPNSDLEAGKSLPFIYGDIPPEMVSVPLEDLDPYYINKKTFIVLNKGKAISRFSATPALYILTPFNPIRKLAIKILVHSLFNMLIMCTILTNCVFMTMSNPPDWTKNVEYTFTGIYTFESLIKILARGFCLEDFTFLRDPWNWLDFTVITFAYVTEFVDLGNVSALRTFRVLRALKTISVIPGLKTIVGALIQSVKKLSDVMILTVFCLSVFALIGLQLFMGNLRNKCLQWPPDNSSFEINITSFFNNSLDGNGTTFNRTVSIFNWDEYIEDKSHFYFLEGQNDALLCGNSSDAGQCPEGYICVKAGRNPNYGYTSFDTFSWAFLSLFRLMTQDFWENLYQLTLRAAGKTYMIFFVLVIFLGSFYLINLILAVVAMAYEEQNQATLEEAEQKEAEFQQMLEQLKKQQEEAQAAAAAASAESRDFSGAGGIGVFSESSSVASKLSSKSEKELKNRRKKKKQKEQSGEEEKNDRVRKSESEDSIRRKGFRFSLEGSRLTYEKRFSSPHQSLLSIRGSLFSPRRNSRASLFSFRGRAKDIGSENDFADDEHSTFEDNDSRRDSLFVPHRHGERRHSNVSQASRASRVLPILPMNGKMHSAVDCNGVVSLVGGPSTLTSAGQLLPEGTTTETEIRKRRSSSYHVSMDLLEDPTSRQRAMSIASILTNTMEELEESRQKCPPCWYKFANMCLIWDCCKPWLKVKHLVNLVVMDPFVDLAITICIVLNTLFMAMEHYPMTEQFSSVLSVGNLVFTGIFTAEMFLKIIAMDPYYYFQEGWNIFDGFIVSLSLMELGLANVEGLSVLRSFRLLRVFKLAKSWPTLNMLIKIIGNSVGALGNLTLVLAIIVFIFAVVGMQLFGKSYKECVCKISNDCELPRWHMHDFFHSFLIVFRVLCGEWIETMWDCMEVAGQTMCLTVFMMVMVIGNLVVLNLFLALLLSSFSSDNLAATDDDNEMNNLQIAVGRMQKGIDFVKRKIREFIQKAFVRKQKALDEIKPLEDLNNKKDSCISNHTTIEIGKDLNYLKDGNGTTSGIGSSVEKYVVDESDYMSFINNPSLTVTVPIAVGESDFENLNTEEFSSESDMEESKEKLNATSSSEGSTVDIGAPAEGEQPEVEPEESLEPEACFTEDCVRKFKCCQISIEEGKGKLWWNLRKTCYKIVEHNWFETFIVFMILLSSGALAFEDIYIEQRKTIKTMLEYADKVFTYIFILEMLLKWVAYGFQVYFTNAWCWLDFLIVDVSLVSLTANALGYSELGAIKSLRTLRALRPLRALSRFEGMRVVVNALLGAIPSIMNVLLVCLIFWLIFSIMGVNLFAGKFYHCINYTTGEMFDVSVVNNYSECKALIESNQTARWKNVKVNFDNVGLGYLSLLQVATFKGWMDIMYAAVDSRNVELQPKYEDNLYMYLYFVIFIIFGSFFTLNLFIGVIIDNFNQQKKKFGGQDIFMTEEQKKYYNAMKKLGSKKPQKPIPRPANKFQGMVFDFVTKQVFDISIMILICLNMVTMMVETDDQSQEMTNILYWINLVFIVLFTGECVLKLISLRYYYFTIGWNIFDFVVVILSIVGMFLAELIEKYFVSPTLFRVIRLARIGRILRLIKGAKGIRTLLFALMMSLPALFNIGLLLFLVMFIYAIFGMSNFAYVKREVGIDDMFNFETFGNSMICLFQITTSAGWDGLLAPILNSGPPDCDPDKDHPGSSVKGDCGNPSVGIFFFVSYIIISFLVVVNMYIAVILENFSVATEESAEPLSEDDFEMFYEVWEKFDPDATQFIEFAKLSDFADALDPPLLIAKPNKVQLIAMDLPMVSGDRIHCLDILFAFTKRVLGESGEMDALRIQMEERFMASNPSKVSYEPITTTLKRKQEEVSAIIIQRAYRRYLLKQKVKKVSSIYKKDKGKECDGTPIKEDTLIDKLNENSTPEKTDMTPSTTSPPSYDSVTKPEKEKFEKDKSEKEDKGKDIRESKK

[7] = molecular target: Voltage-dependent L-type calcium channel subunit alpha-1C (Homo sapiens, UniProt Q13936); experiment: Inhibition of human Cav1.2 stably expressed in HEK293 cells incubated for 30 mins in dark by Fluo-4 AM dye based FLIPR assay; assay type: cell-based
[8] = molecular target: Voltage-gated inwardly rectifying potassium channel KCNH2 (Homo sapiens, UniProt Q12809); experiment: Inhibition of human ERG by PatchXpress assay; assay type: toxicity
Chain of Voltage-gated inwardly rectifying potassium channel KCNH2 (Q12809 whole entry): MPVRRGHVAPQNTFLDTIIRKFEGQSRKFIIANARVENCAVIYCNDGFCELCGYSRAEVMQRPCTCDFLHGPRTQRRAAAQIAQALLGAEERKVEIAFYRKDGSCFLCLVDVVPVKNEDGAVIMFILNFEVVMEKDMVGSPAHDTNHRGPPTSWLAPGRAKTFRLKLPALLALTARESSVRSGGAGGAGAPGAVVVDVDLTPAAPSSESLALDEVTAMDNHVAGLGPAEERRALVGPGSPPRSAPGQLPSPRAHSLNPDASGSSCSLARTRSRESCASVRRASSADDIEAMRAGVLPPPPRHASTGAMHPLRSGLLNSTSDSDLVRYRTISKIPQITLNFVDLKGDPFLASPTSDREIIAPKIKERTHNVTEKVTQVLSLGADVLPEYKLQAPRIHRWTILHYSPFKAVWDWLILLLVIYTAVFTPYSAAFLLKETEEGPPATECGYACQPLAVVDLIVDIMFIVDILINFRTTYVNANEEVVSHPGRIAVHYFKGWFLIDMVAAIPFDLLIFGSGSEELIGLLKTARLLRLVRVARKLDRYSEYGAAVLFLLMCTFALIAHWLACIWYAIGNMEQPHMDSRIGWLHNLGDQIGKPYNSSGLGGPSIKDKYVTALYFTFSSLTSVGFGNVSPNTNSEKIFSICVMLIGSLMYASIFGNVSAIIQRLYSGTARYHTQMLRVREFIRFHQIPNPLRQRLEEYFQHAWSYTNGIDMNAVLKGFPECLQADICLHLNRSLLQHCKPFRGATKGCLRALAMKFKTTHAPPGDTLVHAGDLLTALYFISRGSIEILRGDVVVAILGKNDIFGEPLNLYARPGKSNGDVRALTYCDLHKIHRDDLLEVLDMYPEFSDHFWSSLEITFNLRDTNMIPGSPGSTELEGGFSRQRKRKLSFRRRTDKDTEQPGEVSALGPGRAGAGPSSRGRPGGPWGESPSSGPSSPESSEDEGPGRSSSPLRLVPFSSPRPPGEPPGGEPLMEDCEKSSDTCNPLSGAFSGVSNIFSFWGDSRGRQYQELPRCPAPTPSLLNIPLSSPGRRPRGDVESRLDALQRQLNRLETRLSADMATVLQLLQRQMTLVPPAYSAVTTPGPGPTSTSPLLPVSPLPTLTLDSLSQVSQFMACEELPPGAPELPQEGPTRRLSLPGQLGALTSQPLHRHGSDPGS

[9] = molecular target: Sodium channel protein type 5 subunit alpha (Homo sapiens, UniProt Q14524); experiment: Inhibition of human Nav1.5 by PatchXpress assay; assay type: toxicity
[10] = Inhibition of mast cell degranulation in Wistar Han rat peritoneal lavage mast cells assessed as inhibition histamine release by measuring lowest concentration at which histamine release observed measured after 30 mins; assay type: functional; conditions: 0.5 h
[11] = system: Mast cell; experiment: Effect on mast cell degranulation in Wistar Han rat peritoneal lavage mast cells assessed as increase in maximum histamine level in plasma at upto 1 mg/kg, iv administered as bolus dose measured up to 24 hrs by LC/MS/MS analysis; assay type: functional, organism-based; conditions: dose mg/kg <=1, time hrs <=24
[12] = system: Rattus norvegicus; experiment: Antinociceptive activity against Sprague-Dawley rat model of thermal stimuli induced nociception assessed as increase in tail withdrawal latency administered subcutaneously as single dose measured up to 24 hrs by tail flick test; assay type: functional, organism-based; conditions: time hrs <=24
[13] = system: Rattus norvegicus; experiment: Antinociceptive activity against Sprague-Dawley rat model of thermal stimuli induced nociception assessed as concentration required for maximal tail flick withdrawal latency administered subcutaneously as single dose measured up to 24 hrs by tail flick test; assay type: functional, organism-based
[14] = Ratio of IC50 for inhibition of rat Nav1.7 stably expressed in cells to EC50 for antinociceptive activity against Sprague-Dawley rat model of thermal stimuli induced nociception assessed as concentration required for maximal tail flick withdrawal latency; assay type: functional
[15] = Half life in Wistar Han rat at 0.3 mg/kg, iv measured upto 24 hrs by LC/MS/MS analysis; assay type: ADME, organism-based; conditions: in vivo
[16] = system: Mast cell; experiment: Effect on mast cell degranulation in Wistar Han rat peritoneal lavage mast cells assessed as fold increase in histamine level by measuring histamine Cmax in plasma at 0.3 mg/kg, iv administered as bolus dose measured up to 24 hrs by LC/MS/MS analysis relative to control; assay type: functional; conditions: time hrs <=24
[17] = system: Rattus norvegicus; experiment: Antinociceptive activity against Sprague-Dawley rat model of thermal stimuli induced nociception assessed as increase in tail withdrawal latency administered subcutaneously as single dose measured up to 300 mins by tail flick test; assay type: functional, organism-based; conditions: dose 1-2 mg/kg, time min <=300
[18] = system: Rattus norvegicus; experiment: Antinociceptive activity against Sprague-Dawley rat model of thermal stimuli induced nociception assessed as concentration required for maximal tail flick withdrawal latency administered subcutaneously as single dose measured up to 300 mins by tail flick test; assay type: functional, organism-based; conditions: 5 h

Structure (SMILES)	IC50 [1]	IC50 [2]	IC50 [3]	IC50 [4]	IC50 [5]	IC50 [6]	IC50 [7]	IC50 [8]	IC50 [9]	LED [10]	Activity [11]	Activity [12]	EC50 [13]	fold change (FC) [14]	half-life [15]	fold change (FC) [16]	Activity [17]	EC50 [18]
CC(=O)N[C@H]1CSSC[C@@H]2NC(=O)[C@@H]3CSSC[C@@H](C(=O)N[C@@H](CCCCN)C(=O)N[C@@H](CCCCN)C(=O)N[C@@H](CCCCN)C(=O)N[C@@H](CC(C)C)C(=O)N[C@@H](Cc4c[nH]c5ccccc45)C(N)=O)NC(=O)[C@H](Cc4c[nH]c5ccccc45)NC(=O)[C@H](CC(C)C)NC(=O)[C@H](CCCCN)NC(=O)[C@H](CSSC[C@H](NC(=O)[C@@H]4CCCN4C(=O)[C@H](CCC(=O)O)NC(=O)[C@H](CC(C)C)NC(=O)[C@H](Cc4ccccc4)NC(=O)[C@H](CCCCN)NC(=O)[C@H](CCC(N)=O)NC1=O)C(=O)N[C@@H](CC(=O)O)C(=O)N[C@@H](CO)C(=O)N[C@@H](CCC(=O)O)C(=O)N[C@@H](CCCNC(=N)N)C(=O)N[C@@H](CCCCN)C(=O)N3)NC(=O)[C@H](CCC(=O)O)NC(=O)[C@H](CC(C)C)NC(=O)CNC(=O)[C@H](CCC(=O)O)NC2=O (Ac-CQKFLEPCDSERKCCEGLECKLWCKKKLW-NH2; disulfide 1-15, 8-20, 14-24)	183 nM	> 17000 nM	> 17000 nM	133 nM	18.8 nM	> 17000 nM	> 30000 nM	> 15000 nM	> 15000 nM	30 µM	inactive	Dose-Dependent Effect	1620 nM	50	< 3 h			
CC(C)C[C@@H]1NC(=O)CNC(=O)[C@H](CCC(=O)O)NC(=O)[C@@H]2CSSC[C@H](NC(=O)[C@@H](N)Cc3ccc(O)cc3)C(=O)N[C@@H](CCC(N)=O)C(=O)N[C@@H](CCCCN)C(=O)N[C@@H](Cc3ccccc3)C(=O)N[C@@H](CC(C)C)C(=O)N[C@@H](C)C(=O)N3CCC[C@H]3C(=O)N[C@H]3CSSC[C@H](NC(=O)[C@H](C(C)C)NC1=O)C(=O)N[C@@H](CCCNC(=N)N)C(=O)N[C@@H](CC(C)C)C(=O)N[C@@H](Cc1c[nH]c4ccccc14)C(=O)N[C@H](C(=O)N[C@@H](CCCCN)C(=O)N[C@@H](CCCCN)C(=O)N[C@@H](CCCCN)C(=O)N[C@@H](CC(C)C)C(=O)N[C@@H](Cc1c[nH]c4ccccc14)C(N)=O)CSSC[C@H](NC(=O)[C@H](CCCCN)NC(=O)[C@H](CCCNC(=N)N)NC(=O)[C@H](CCC(=O)O)NC(=O)[C@H](CO)NC(=O)[C@H](CC(=O)O)NC3=O)C(=O)N2 (H-YCQKFLAPCDSERKCCEGLVCRLWCKKKLW-NH2; disulfide 2-16, 9-21, 15-25)	32 nM	1770 nM	1190 nM	5.9 nM	8.3 nM	> 17000 nM	> 30000 nM	780 nM	2900 nM	3.3 µM		Dose-Dependent Effect	294 nM	50	< 3 h	12		
CSCC[C@@H]1NC(=O)CNC(=O)[C@H](CCC(=O)O)NC(=O)[C@@H]2CSSC[C@H](NC(=O)[C@@H](N)Cc3ccc(O)cc3)C(=O)N[C@@H](CCC(N)=O)C(=O)N[C@@H](CCCCN)C(=O)N[C@@H](Cc3c[nH]c4ccccc34)C(=O)N[C@@H](CCSC)C(=O)N[C@@H](Cc3c[nH]c4ccccc34)C(=O)N[C@@H]([C@@H](C)O)C(=O)N[C@H]3CSSC[C@H](NC(=O)[C@H](C(C)C)NC1=O)C(=O)N[C@@H](CCCNC(=N)N)C(=O)N[C@@H](CC(C)C)C(=O)N[C@@H](Cc1c[nH]c4ccccc14)C(=O)N[C@H](C(=O)N[C@@H](CCCCN)C(=O)N[C@@H](CCCCN)C(=O)N[C@@H](CCCCN)C(=O)N[C@@H](CC(C)C)C(=O)N[C@@H](Cc1c[nH]c4ccccc14)C(N)=O)CSSC[C@H](NC(=O)[C@H](CCCCN)NC(=O)[C@H](CCCNC(=N)N)NC(=O)[C@H](CCC(=O)O)NC(=O)[C@H](CO)NC(=O)[C@H](CC(=O)O)NC3=O)C(=O)N2		93 nM	75 nM		1.3 nM	1500 nM	1400 nM	22 nM	180 nM	0.37 µM				50	< 3 h		Dose-Dependent Effect	56 nM
CC(=O)N[C@H]1CSSC[C@@H]2NC(=O)[C@@H]3CSSC[C@@H](C(=O)N[C@@H](CCCCN)C(=O)N[C@@H](CCCCN)C(=O)N[C@@H](CCCCN)C(=O)N[C@@H](CC(C)C)C(=O)N[C@@H](Cc4c[nH]c5ccccc45)C(N)=O)NC(=O)[C@H](Cc4c[nH]c5ccccc45)NC(=O)[C@H](CC(C)C)NC(=O)[C@H](CCCNC(=N)N)NC(=O)[C@H](CSSC[C@H](NC(=O)[C@@H]4CCCN4C(=O)[C@H](CCCCN)NC(=O)[C@H](CC(C)C)NC(=O)[C@H](Cc4ccccc4)NC(=O)[C@H](CCC(=O)O)NC(=O)[C@H](CCC(N)=O)NC1=O)C(=O)N[C@@H](CC(=O)O)C(=O)N[C@@H](CO)C(=O)N[C@@H](CCC(=O)O)C(=O)N[C@@H](CCCNC(=N)N)C(=O)N[C@@H](CCCCN)C(=O)N3)NC(=O)[C@H](C(C)C)NC(=O)[C@H](CC(C)C)NC(=O)CNC(=O)[C@H](CCC(=O)O)NC2=O (Ac-CQEFLKPCDSERKCCEGLVCRLWCKKKLW-NH2; disulfide 1-15, 8-20, 14-24)	27 nM	4140 nM	4830 nM							10 µM								
CC(=O)N[C@H]1CSSC[C@@H]2NC(=O)[C@@H]3CSSC[C@@H](C(=O)N[C@@H](CCCCN)C(=O)N[C@@H](CCCCN)C(=O)N[C@@H](CCCCN)C(=O)N[C@@H](CC(C)C)C(=O)N[C@@H](Cc4c[nH]c5ccccc45)C(N)=O)NC(=O)[C@H](Cc4c[nH]c5ccccc45)NC(=O)[C@H](CC(C)C)NC(=O)[C@H](C(C)C)NC(=O)[C@H](CSSC[C@H](NC(=O)[C@@H]4CCCN4C(=O)[C@H](C)NC(=O)[C@H](CC(C)C)NC(=O)[C@H](Cc4ccccc4)NC(=O)[C@H](CCCCN)NC(=O)[C@H](CCC(N)=O)NC1=O)C(=O)N[C@@H](CC(=O)O)C(=O)N[C@@H](CCCCN)C(=O)N[C@@H](/C=C/C(=O)O)C(=O)N[C@@H](CCCNC(=N)N)C(=O)N[C@@H](CCCCN)C(=O)N3)NC(=O)[C@H](CCC(=O)O)NC(=O)[C@H](CC(C)C)NC(=O)CNC(=O)[C@H](CCC(=O)O)NC2=O (Ac-CQKFLAPCDK[X1]RKCCEGLECVLWCKKKLW-NH2; disulfide 1-15, 8-20, 14-24)	99 nM	> 17000 nM	> 17000 nM							33 µM								
CC(=O)N[C@H]1CSSC[C@@H]2NC(=O)[C@@H]3CSSC[C@@H](C(=O)N[C@@H](CCCCN)C(=O)N[C@@H](CCCCN)C(=O)N[C@@H](CCCCN)C(=O)N[C@@H](CC(C)C)C(=O)N[C@@H](Cc4c[nH]c5ccccc45)C(N)=O)NC(=O)[C@H](Cc4c[nH]c5ccccc45)NC(=O)[C@H](CC(C)C)NC(=O)[C@H](CCCNC(=N)N)NC(=O)[C@H](CSSC[C@H](NC(=O)[C@@H]4CCCN4C(=O)[C@H](C)NC(=O)[C@H](CC(C)C)NC(=O)[C@H](Cc4ccccc4)NC(=O)[C@H](CCCCN)NC(=O)[C@H](CCC(N)=O)NC1=O)C(=O)N[C@@H](CC(=O)O)C(=O)N[C@@H](CO)C(=O)N[C@@H](CCC(=O)O)C(=O)N[C@@H](CCCNC(=N)N)C(=O)N[C@@H](CCCCN)C(=O)N3)NC(=O)[C@H](CCC(=O)O)NC(=O)[C@H](CC(C)C)NC(=O)CNC(=O)[C@H](CCC(=O)O)NC2=O (Ac-CQKFLAPCDSERKCCEGLECRLWCKKKLW-NH2; disulfide 1-15, 8-20, 14-24)	42 nM	> 17000 nM	> 17000 nM							3.3 µM								
